Experiments:
[1] = system: adult zebrafish caudal fin regeneration; assay: Adult zebrafish caudal fin regeneration study; assay type: in vivo
Excerpt: The fish were transferred back to the tanks and were continuously exposed to vehicle or Beclomethasone until the end of the study. The exposure solutions were changed daily. The positive “hits” were of different chemical classes and using structure function analysis, a major cluster of compounds was identified as glucocorticoids (5 of the “hit” compounds). […] We selected glucocorticoids for further studies since this was the largest cluster of “hits”. […] This characteristic morphology occurs because the tissue lateral to the amputation plane continues to grow and partially collapses around the amputation plane. Since the adult fin regeneration model is more widely studied, it was important to determine if chemical “hits” identified in the larval screen would be predictive for the adult fin regeneration responses. Therefore, the regeneration response to glucocorticoids exposure on fin regeneration was also assessed in adult zebrafish.

[2] = system: zebrafish larvae caudal fin regeneration; assay: Larval fin regeneration with exposure in distinct time windows post amputation; assay type: in vivo; conditions: 1 μM
Protocol: Once candidate agents have been determined to affect regeneration, a number of studies may be done. In one example, the IC50 of the candidate agent is determined using methods known in the art. In another example, a secondary screen is performed to aid in identification of a target of the candidate agent. This may be accomplished in many ways. For example, after amputation, the fin undergoes several stages of regeneration. In a first stage, cells migrate into the epithelial wound cap. In a second stage, the blastema differentiates within the wound cap. In a final stage, cells proliferate, leading to outgrowth of the new fin. Thus, by adding the candidate agent to the amputated teleost for short durations of time at different, defined, times after amputation, it is possible to identify which regenerative stage or stages are sensitive to the candidate agent. Specifically, agents present for 0 to 4 hours post amputation (hpa) would preferentially target epithelial wound cap formation. Agents present between 4 and 12 hpa may specifically target blastema formation, and agents present between 12 and 24 hpa may preferentially target cellular differentiation. Finally, agents present between 24 hpa and 72 hpa would target the cellular proliferation stage.
Fertilized eggs were obtained from AB strain zebrafish (University of Oregon, Eugene, Oreg.) for all the experiments. […]

For CCC(=O)OCC(=O)[C@@]1(OC(=O)CC)[C@@H](C)C[C@H]2[C@@H]3CCC4=CC(=O)C=C[C@]4(C)[C@@]3(Cl)[C@@H](O)C[C@@]21C [Beclomethasone, Beclomethasone dipropionate], the “adult caudal fin regeneration” value ([1]; 0.005 mg/L waterborne, one day pre-exposure then continuous exposure) was “completely inhibited”, the “new tissue in the adult fin” value ([1]; at 5 dpa) was “essentially no new tissue” and the “larval fin regeneration, exposure for four hours immediately following amputation” value ([2]; 0-4 hpa) was “failed to regenerate”. The “larval fin regeneration, exposure beginning at 4 hpa” value ([2]; from 4 hpa continuously until 3 dpa) was “completely regenerated their fins”.
